Data taken from patent publication US4038278A, “4-Aminopyrimidium derivatives and preparation thereof” (Eisai Co., Ltd., priority 1974, dated 1977).
Where two headings read alike, the source gives them in different places. Blank lines part the entries; values can stand above or below the compound they belong to.

Columns and labels:
[1] = test system: acetic acid Writhing syndrome; experiment: Anti-acetic acid Writhing test, oral, in mice; assay type: in vivo, mouse (dd strain); conditions: for ED50: Mus musculus, po, read-out: ED50 (anti-acetic acid Writhing)
Experimental: Comparative tests for anti-acetic acid Writhing activity in mice were made to the Compound A of the present invention and 4-amino-pyrimidine-N^1 -phenacylbromide (hereinafter referred to as Compound C), using Aspirin as a control compound. The test compounds were respectively suspended in an of aqueous solution of containing five percent of gum Arabic. Eight male mice of dd strain weighing approximately 20 - 23g were used as the test animals. The mice were made to fast for about 19 hours.
After 50 minutes or 170 minutes of administration of the test compounds, 0.1 ml of 0.7% acetic acid solution per 10 g. of the body weight of the test animal was injected intraperitoneally. Regarding the expansion of the hind paw of the mice induced during 15 minutes after the injection, a number of Writhing syndromes were encountered and recorded. Effects of the respective test compounds against the usual behavior of the mice were also observed. In the above test, 5% gum arabic solution per se was administered to the control animal.
Various doses of the respective compounds were orally administered to eight mice. After 1 or 3 hours of the administration, a anti-acetic acid Writhing test was carried out.

gastric secretion = experiment: Effect on gastric secretion in 4hr. pylorus-ligated rats (intraduodenal); assay type: in vivo, rat (Wistar strain)
Experimental: (§1) Using rats of Wistar strain as test animals weighing about 150 - 160 g., the anti-ulcer activities were measured in accordance with the conventional manner with respect to the following four (4) items.
ii. Effect on gastric secretion in 4hr. pylorus-ligated rats. (Intraduodenal administration)

pH of the test compound = assay type: physicochemical; conditions: footnote of Table 5
Shay Ulcer = experiment: Effect on Shay Ulcer in rats (17hr. pylorus-ligated rats); assay type: in vivo, rat (Wistar strain); conditions: for Inhibitory % (ulcer index) / Ulcer Index (mm): 300 (mg/μg [sic]); for Inhibitory % (ulcer index) / Ulcer Index (mm) / Inhibitory % (titrable acidity) / Inhibitory % (volume) / Titrable Acidity to pH 7.0 / Vol(ml) 100g B.W.: 17hr pylorus-ligated; for Ulcer Index (mm): Compound A n=2, individual values (0),(84), Compound C n=6, * P<0.05; for Inhibitory % (titrable acidity) / Inhibitory % (volume) / Titrable Acidity to pH 7.0 / Vol(ml) 100g B.W.: dose not given in Table 7; for Vol(ml) 100g B.W.: Compound A n=2, individual values (1.11),(3.29); for inhibitory effect against the appearance of ulcer in words: Tables 6 and 7
Experimental: as §1
iii. Effect on Shay Ulcer in rats. (Method by 17hr. pylorusligated rats)

Stress Ulcer (Immersion) = Stress Ulcer (Immersion) at 23-25° C. for 20 hrs; assay type: in vivo, rat (Wistar strain); conditions: for effect on stress ulcer in words: 300 mg/Kg (p.o.)
Experimental: as §1
i. Stress Ulcer (Immersion) at 23° - 25° C. for 20 hrs.

[2] = test system: gastric secretion stimulated by carbachol; experiment: Effect on gastric secretion stimulated by carbachol in acute gastric fistula rats; assay type: in vivo, rat (Wistar strain); conditions: FIG. 1
Experimental: as §1
iv. Effect on gastric secretion in acute gastric fistula rats.
Comparative tests were carried out to measure the effects on gastric secretion stimulated by carbachol and the effects of Compounds A and C on eight rats of Wistar strain. The results are graphically shown in the accompanying FIG. 1.

[3] = test system: Carrageenin edema of the hind paw of the rat; experiment: Anti-edematic effect, Carrageenin paw edema method, oral, in rats; assay type: in vivo, rat (Wistar strain); conditions: for Anti-edematic ratio (%) / Comparison with Control Compound (anti-edematic ratio): 100 mg/kg p.o.; for Anti-edematic ratio (%): rats, 3 hours after Carrageenin; for Comparison with Control Compound (anti-edematic ratio): Control compound (Aspirin) = 100; for anti-edematic / anti-inflammatory effect in words: 100 mg/Kg p.o.
Experimental: Test animal: For the respective compounds, four male rats of the Wistar strain weighing approximately 150g were used. The test animals were made to fast for approximately 16 hours.
The anti-edematic test is carried out by determining the increase of edema due to the injection of […], in accordance with the paw edema method. [see Winter. C. A. et al; Proc. Soc. exp.
The test compounds were respectively suspended in five percent of aqueous solution of gum Arabic, and the suspensions were orally administered to the rats one hour before the injection of the Carrageenin. Activities were determined by measuring the volume of the hind paw of the rat three hours after the administration of the Carrageenin.

stomach mucosa = experiment: Degree of gastric trouble (visible observation of stomach mucosa); assay type: in vivo, rat (Wistar strain); conditions: for Degree of gastric trouble: 100 mg/kg p.o., sum of scores (0-3) of 4 rats; for degree of gastric trouble in words: 100 mg/Kg p.o.
From the text: 2. Degree of gastric trouble
The rats used in above test of anti-edematic effects were slaughtered, and their stomaches were visibly observed in accordance with the under-mentioned bases. Measurement values were decided by summing up the respective data of 4 tests of each group.
Visible observation of the stomach mucosa
No abnormality is recognized
Slight edema, congestion or slight erosion
Scattered or limitted erosion and spotted
Heavy erosion, linear bleeding or enlarged

[4] = 3hr, 160 mg/Kg p.o., ** P<0.01 for Compound C
[5] = 150 (mg/μg [sic]) intraduodenal
[6] = 300 (mg/μg [sic]) intraduodenal
[7] = 150 mg/Kg p.o., * P<0.05 for Compound C
[8] = 300 mg/Kg p.o., ** P<0.01 for Compound A, * P<0.05 for Compound C

SMILES: CC(=O)Oc1ccccc1C(=O)O [Aspirin, reference compound]
ED50 ([1]; 1 h): 410 mg/kg
ED50 ([1]; 3 h): 253 mg/kg
Anti-edematic ratio (%) [3]: 35.8%
Comparison with Control Compound (anti-edematic ratio) [3]: 100
Degree of gastric trouble (stomach mucosa): 12

SMILES: COc1ccc(C(=O)C[n+]2ccc(N)nc2)cc1 [Compound A, 4-aminopyrimidine N^1-(p-methoxyphenacyl)bromide]
No. of Writhing Syndrome (m±S.E.) ([1]; 1hr, 20 mg/Kg p.o.): 41.4 ± 5.6
% of Protection ([1]; 1hr, 40 mg/Kg p.o.): 18%
No. of Writhing Syndrome (m±S.E.) ([1]; 1hr, 40 mg/Kg p.o.): 33.1 ± 3.7
% of Protection ([1]; 1hr, 80 mg/Kg p.o.): -15%
No. of Writhing Syndrome (m±S.E.) ([1]; 1hr, 80 mg/Kg p.o.): 46.3 ± 3.6
No. of Writhing Syndrome (m±S.E.) ([1]; 1hr, 160 mg/Kg p.o.): 29.4 ± 5.1
% of Protection ([1]; 1hr, 160 mg/Kg p.o., * P<0.05): 27%
No. of Writhing Syndrome (m±S.E.) ([1]; 1hr, 320 mg/Kg p.o.): 17.1 ± 4.6
% of Protection ([1]; 1hr, 320 mg/Kg p.o., ** P<0.01): 58%
% of Protection ([1]; 3hr, 20 mg/Kg p.o.): -13%
No. of Writhing Syndrome (m±S.E.) ([1]; 3hr, 20 mg/Kg p.o.): 34.6 ± 5.4
% of Protection ([1]; 3hr, 40 mg/Kg p.o.): 43%
No. of Writhing Syndrome (m±S.E.) ([1]; 3hr, 40 mg/Kg p.o.): 17.6 ± 4.8
% of Protection ([1]; 3hr, 80 mg/Kg p.o.): 25%
No. of Writhing Syndrome (m±S.E.) ([1]; 3hr, 80 mg/Kg p.o.): 23.1 ± 6.6
No. of Writhing Syndrome (m±S.E.) ([1]; 3hr, 160 mg/Kg p.o.): 21.8 ± 4.0
% of Protection [1, 4]: 29%
No. of Writhing Syndrome (m±S.E.) ([1]; 3hr, 320 mg/Kg p.o.): 3.8 ± 2.7
% of Protection ([1]; 3hr, 320 mg/Kg p.o., ** P<0.01): 88%
Inhibitory % (titrable acidity) (gastric secretion; [5]): 92.4%
Inhibitory % (volume) (gastric secretion; [5]): 73.3%
Titrable acidity to PH 7.0 (gastric secretion; [5]): 14.4 ± 4.2 μEq/100g B.W.
Vol/100 g B.W.(ml) (gastric secretion; [5]): 0.5 ± 0.06 ml/100 g B.W.
Inhibitory % (titrable acidity) (gastric secretion; [6]): 96.4%
Inhibitory % (volume) (gastric secretion; [6]): 64.4%
Titrable acidity to PH 7.0 (gastric secretion; [6]): 6.8 ± 3.4 μEq/100g B.W.
Vol/100 g B.W.(ml) (gastric secretion; [6]): 0.72 ± 0.24 ml/100 g B.W.
pH of the test compound (pH of the test compound): 6.3
Inhibitory % (ulcer index) (Shay Ulcer): 23.4%
Ulcer Index (mm) (Shay Ulcer): 42 mm
Inhibitory % (titrable acidity) (Shay Ulcer): 45.9%
Inhibitory % (volume) (Shay Ulcer): 54.1%
Titrable Acidity to pH 7.0 (Shay Ulcer): 188.2 ± 72.0 μ Eq/100g B.W.
Vol(ml) 100g B.W. (Shay Ulcer): 2.20 ml/100g B.W.
inhibitory effect against the appearance of ulcer in words (Shay Ulcer): outstanding inhibitory effects
Inhibitory % (ulcer index) (Stress Ulcer (Immersion); 150 mg/Kg p.o.): 28.1%
Ulcer Index (mm) (Stress Ulcer (Immersion); [7]): 37.1 ± 5.9 mm
effect on stress ulcer in words (Stress Ulcer (Immersion)): effective
Inhibitory % (ulcer index) (Stress Ulcer (Immersion); 300 mg/Kg p.o.): 70.3%
Ulcer Index (mm) (Stress Ulcer (Immersion); [8]): 15.3 ± 6.1 mm
anti-edematic / anti-inflammatory effect in words [3]: equal to, or more than that of the Control compound
Anti-edematic ratio (%) [3]: 50.0%
Comparison with Control Compound (anti-edematic ratio) [3]: 140
degree of gastric trouble in words (stomach mucosa): extremely less than that of the Control compound
Degree of gastric trouble (stomach mucosa): 2

SMILES: CC(C)[N+](C)(CCOC(=O)C1c2ccccc2Oc2ccccc21)C(C)C [Propantheline, reference compound]
Inhibitory % (ulcer index) (Stress Ulcer (Immersion); 15 mg/Kg p.o.): 37.0%
Ulcer Index (mm) (Stress Ulcer (Immersion); 15 mg/Kg p.o.): 43.8 ± 12.9 mm
Inhibitory % (ulcer index) (Stress Ulcer (Immersion); 30 mg/Kg p.o.): 61.4%
Ulcer Index (mm) (Stress Ulcer (Immersion); 30 mg/Kg p.o., ** P<0.01): 26.8 ± 7.4 mm

More lines, main results first:

pH of the test compound (pH of the test compound): 5.8
SMILES: Nc1cc[n+](CC(=O)c2ccccc2)cn1 [Compound C, 4-amino-pyrimidine-N^1-phenacylbromide]
% of Protection ([1]; 1hr, 20 mg/Kg p.o.): 8%
No. of Writhing Syndrome (m±S.E.) ([1]; 1hr, 20 mg/Kg p.o.): 36.9 ± 3.6
% of Protection ([1]; 1hr, 40 mg/Kg p.o.): 13%
No. of Writhing Syndrome (m±S.E.) ([1]; 1hr, 40 mg/Kg p.o.): 34.9 ± 7.3
% of Protection ([1]; 1hr, 80 mg/Kg p.o.): -12%
No. of Writhing Syndrome (m±S.E.) ([1]; 1hr, 80 mg/Kg p.o.): 45.3 ± 1.7
No. of Writhing Syndrome (m±S.E.) ([1]; 1hr, 160 mg/Kg p.o.): 29.9 ± 5.1
% of Protection ([1]; 1hr, 160 mg/Kg p.o., * P<0.05): 26%
No. of Writhing Syndrome (m±S.E.) ([1]; 1hr, 320 mg/Kg p.o.): 15.9 ± 5.5
% of Protection ([1]; 1hr, 320 mg/Kg p.o., ** P<0.01): 61%
% of Protection ([1]; 3hr, 20 mg/Kg p.o.): -35%
No. of Writhing Syndrome (m±S.E.) ([1]; 3hr, 20 mg/Kg p.o.): 41.4 ± 5.0
% of Protection ([1]; 3hr, 40 mg/Kg p.o.): 27%
No. of Writhing Syndrome (m±S.E.) ([1]; 3hr, 40 mg/Kg p.o.): 22.3 ± 5.3
% of Protection ([1]; 3hr, 80 mg/Kg p.o.): -19%
No. of Writhing Syndrome (m±S.E.) ([1]; 3hr, 80 mg/Kg p.o.): 36.4 ± 3.8
No. of Writhing Syndrome (m±S.E.) ([1]; 3hr, 160 mg/Kg p.o.): 11.0 ± 3.3
% of Protection [1, 4]: 64%
No. of Writhing Syndrome (m±S.E.) ([1]; 3hr, 320 mg/Kg p.o.): 12.9 ± 4.6
% of Protection ([1]; 3hr, 320 mg/Kg p.o., ** P<0.01): 58%
Inhibitory % (titrable acidity) (gastric secretion; [5]): 69.7%
Inhibitory % (volume) (gastric secretion; [5]): 53.5%
Titrable acidity to PH 7.0 (gastric secretion; [5]): 57.0 ± 22.4 μEq/100g B.W.
Vol/100 g B.W.(ml) (gastric secretion; [5]): 0.94 ± 0.20 ml/100 g B.W.
Inhibitory % (titrable acidity) (gastric secretion; [6]): 88.2%
Inhibitory % (volume) (gastric secretion; [6]): 69.3%
Titrable acidity to PH 7.0 (gastric secretion; [6]): 22.2 ± 7.6 μEq/100g B.W.
Vol/100 g B.W.(ml) (gastric secretion; [6]): 0.62 ± 0.08 ml/100 g B.W.
Inhibitory % (ulcer index) (Shay Ulcer): 64.8%
Ulcer Index (mm) (Shay Ulcer): 19 ± 7 mm
Inhibitory % (titrable acidity) (Shay Ulcer): -19.3%
Inhibitory % (volume) (Shay Ulcer): 34.5%
Titrable Acidity to pH 7.0 (Shay Ulcer): 414.8 ± 83.0 μ Eq/100g B.W.
Vol(ml) 100g B.W. (Shay Ulcer): 3.14 ± 0.43 ml/100g B.W.
inhibitory effect against the appearance of ulcer in words (Shay Ulcer): outstanding inhibitory effects
Inhibitory % (ulcer index) (Stress Ulcer (Immersion); 150 mg/Kg p.o.): 23.4%
Ulcer Index (mm) (Stress Ulcer (Immersion); [7]): 53.1 ± 5.8 mm
effect on stress ulcer in words (Stress Ulcer (Immersion)): effective
Inhibitory % (ulcer index) (Stress Ulcer (Immersion); 300 mg/Kg p.o.): 66.2%
Ulcer Index (mm) (Stress Ulcer (Immersion); [8]): 23 ± 6.3 mm
inhibitory effect to Maximum Response [2]: about 35%

Degree of gastric trouble (stomach mucosa): 6
SMILES: Cc1cccc(C(=O)C[n+]2ccc(N)nc2)c1 [Compound B, 4-aminopyrimidine N^1-(m-methylphenacyl)bromide]
anti-edematic / anti-inflammatory effect in words [3]: equal to, or more than that of the Control compound
Anti-edematic ratio (%) [3]: 35.3%
Comparison with Control Compound (anti-edematic ratio) [3]: 99
degree of gastric trouble in words (stomach mucosa): extremely less than that of the Control compound
